Results from patent publication US8940333B2, “Amphiphilic block copolymers and nanoparticles comprising the same” (priority 2005, dated 2015).

Tests used:
[1] = test system: erythrocyte; experiment: Hemolysis test (ASTM F756); assay type: cell-based
[2] = test system: macrophage culture (RAW 264.7); experiment: In vitro stealth test: reactive oxygen species (DCFDA to DCF) in macrophage culture, flow cytometer; assay type: cell-based; conditions: RAW 264.7, 1 μm PMA, 24-hour activation (positive control)

| Structure (SMILES) | Hemolytic grade [1] | Hemolytic index (%) [1] [%] | mean fluorescent intensity of DCF [2] |
| --- | --- | --- | --- |
| CC[C@@]1(O)C(=O)OCc2c1cc1n(c2=O)Cc2cc3ccccc3nc2-1 [Camptothecin] | slight hemolysis | 5.84 |  |
| CCCCCCCCCCCCCC(=O)O[C@@H]1[C@@H](C)[C@@]2(O)[C@@H](C=C(CO)C[C@]3(O)C(=O)C(C)=C[C@@H]23)[C@@H]2C(C)(C)[C@]12OC(C)=O [PMA] |  |  | 20.13 |
